# According to US20090069300A1, “ISOQUINOLINYL AND ISOINDOLINYL DERIVATIVES AS HISTAMINE-3 ANTAGONISTS” (Wyeth, priority 2007, published 2009):
# Where a name gives a salt, the structure may show the parent alone.
# Molecular target: T1, Human Histamine H3 Receptor (Homo sapiens, UniProt Q9Y5N1)
# T1 construct: expressed in transfected cells; host or cells: HEK293T (stably transfected; membranes prepared from the cells)
# Test: Methyl histamine binding in human histamine H3 receptor cell line
# Conditions: read-out: H3 Binding Ki
# Procedure: Evaluation of Methyl Histamine Binding in Human Histamine H3 Receptor Cell Line
# The affinity of test compounds for the histamine 3 (H3) receptor is evaluated in the following manner. […] Cells are scraped from the plate, transferred to centrifuge tubes, washed one time in PBS by centrifugation in a Sorvall RT7 Plus centrifuge (2000 rpm 10 minutes, 4° C.). The resulting pellets are stored at −80° C. until ready for use. Cells are re-suspended in buffer (50 mM Tris pH=7.5) and placed in a Dounce homogenizer, douncing ten times to homogenize cells. The homogenate is spun down by centrifugation (Sorvall RT7 Plus, 1800 rpm 10 minutes, 4° C.). The supernatant is placed in a Corex tube and spun down by centrifugation (Sorvall RC 5c Plus, 17,000 rpm 20 minutes, 4° C.). The pellet is resuspended in buffer (50 mM Tris, pH 7.5). Protein concentration (ug/ul) is determined using the Micro-BCA Protein Determination. The binding assay is set up in a 96 well microtiter plate in a total volume of 250 uL. Non-specific binding is determined in the presence of 10 uM clobenpropit. The final radioligand concentration is 1 nM. The test compound is serially diluted using the Beckman Biomek2000 to a final approximate range of 100 uM to 100 pM. Membranes are suspended in buffer, homogenized in 2 bursts of ten seconds using a Vitris mechanical homogenizer set at power setting 5. Ten μg of membranes are added to each well. Following a one hour incubation at 30° C., the reaction is terminated by the addition of ice cold buffer and rapid filtration with a Packard Filtermate Harvester through a GF/B filter pre-soaked with 1% PEI for one hour. The plate is dried for one hour at 37° C. and 60 μL Microscint Scintillant is added to each well. The CPM per well is measured on a Packard Top Count NXT. Ki values are determined in nM. […] CPM values are expressed as % specific binding and plotted vs compound concentration. A curve is fitted using a four-parameter logistic fit and the IC50 value is determined. The Ki is calculated from this using the Cheng-Prusoff equation: […]=IC50/1+(L/Kd) where L=concentration of free radioligand used in the assay, and Kd is the dissociation constant of the radioligand for the receptor. L is determined for each experiment by counting an aliquot of the diluted radioligand (corresponding to that added to each well) and the Kd has previously been determined under identical conditions for this cell line/radioligand.
# T1 sequence (Q9Y5N1 whole entry): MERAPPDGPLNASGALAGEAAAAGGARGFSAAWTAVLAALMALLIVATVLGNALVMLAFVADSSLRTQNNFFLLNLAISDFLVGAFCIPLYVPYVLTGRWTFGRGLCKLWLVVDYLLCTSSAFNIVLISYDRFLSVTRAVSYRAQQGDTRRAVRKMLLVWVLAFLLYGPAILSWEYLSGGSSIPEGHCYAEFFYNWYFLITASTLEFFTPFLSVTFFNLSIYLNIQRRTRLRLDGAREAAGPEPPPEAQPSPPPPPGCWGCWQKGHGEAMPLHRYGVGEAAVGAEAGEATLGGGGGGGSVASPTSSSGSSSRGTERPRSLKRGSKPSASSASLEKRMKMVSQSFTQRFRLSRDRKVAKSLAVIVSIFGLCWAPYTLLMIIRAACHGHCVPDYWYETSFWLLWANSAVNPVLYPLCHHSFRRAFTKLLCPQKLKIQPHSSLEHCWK
row,Structure (SMILES),Ki [nM]
1,"N#Cc1ccc(Oc2ccc3c(c2)CCN(CCN2CCCC2)C3=O)nc1 [Example 47, 6-{[1-oxo-2-(2-pyrrolidin-1-ylethyl)-1,2,3,4-tetrahydroisoquinolin-6-yl]oxy}nicotinonitrile]",10.1 to 25
2,"O=C(c1ccc(-c2ccc3c(c2)CCN(CCN2CCCC2)C3=O)cc1)N1CCC1 [Example 64, 6-[4-(azetidin-1-ylcarbonyl)phenyl]-2-(2-pyrrolidin-1-ylethyl)-3,4-dihydroisoquinolin-1(2H)-one]",< 10
3,"CCN(CC)C(=O)c1ccc(-c2ccc3c(c2)CCN(CCN2CCC[C@H]2C)C3=O)cc1 [Example 65, N,N-diethyl-4-(2-{2-[(2R)-2-methylpyrrolidin-1-yl]ethyl}-1-oxo-1,2,3,4-tetrahydroisoquinolin-6-yl)benzamide]",< 10
4,"C[C@@H]1CCCN1CCN1CCc2cc(-c3ccc(C(=O)N4CCCC4)cc3)ccc2C1=O [Example 66, 2-{2-[(2R)-2-methylpyrrolidin-1-yl]ethyl}-6-[4-(pyrrolidin-1-ylcarbonyl)phenyl]-3,4-dihydroisoquinolin-1(2H)-one]",< 10
5,"NC(=O)c1ccc(-c2ccc3c(c2)CCN(CCN2CCCC2)C3=O)cc1 [Example 67, 4-[1-oxo-2-(2-pyrrolidin-1-ylethyl)-1,2,3,4-tetrahydroisoquinolin-6-yl]benzamide]",< 10
6,"O=C(NCCF)c1ccc(-c2ccc3c(c2)CCN(CCN2CCCC2)C3=O)cc1 [Example 68, N-(2-fluoroethyl)-4-[1-oxo-2-(2-pyrrolidin-1-ylethyl)-1,2,3,4-tetrahydroisoquinolin-6-yl]benzamide]",< 10
7,"COCCNC(=O)c1ccc(-c2ccc3c(c2)CCN(CCN2CCCC2)C3=O)cc1 [Example 69, N-(2-methoxyethyl)-4-[1-oxo-2-(2-pyrrolidin-1-ylethyl)-1,2,3,4-tetrahydroisoquinolin-6-yl]benzamide]",< 10
8,"CC(C)OCCNC(=O)c1ccc(-c2ccc3c(c2)CCN(CCN2CCCC2)C3=O)cc1 [Example 70, N-(2-isopropoxyethyl)-4-[1-oxo-2-(2-pyrrolidin-1-ylethyl)-1,2,3,4-tetrahydroisoquinolin-6-yl]benzamide]",< 10
9,"O=C(NCCOc1ccccc1)c1ccc(-c2ccc3c(c2)CCN(CCN2CCCC2)C3=O)cc1 [Example 71, 4-[1-oxo-2-(2-pyrrolidin-1-ylethyl)-1,2,3,4-tetrahydroisoquinolin-6-yl]-N-(2-phenoxyethyl)-benzamide]",50.1 to 100
10,"CCOCCNC(=O)c1ccc(-c2ccc3c(c2)CCN(CCN2CCCC2)C3=O)cc1 [Example 72, N-(2-ethoxyethyl)-4-[1-oxo-2-(2-pyrrolidin-1-ylethyl)-1,2,3,4-tetrahydroisoquinolin-6-yl]benzamide]",10.1 to 25
11,"C[C@@H]1CCCN1CCN1CCc2cc(-c3ccc(C(=O)NCC4CC4)cc3)ccc2C1=O [Example 73, N-(cyclopropylmethyl)-4-(2-{2-[(2R)-2-methylpyrrolidin-1-yl]ethyl}-1-oxo-1,2,3,4-tetrahydroisoquinolin-6-yl)benzamide]",< 10
12,"C[C@@H]1CCCN1CCN1CCc2cc(-c3ccc(C(=O)NC4CCC4)cc3)ccc2C1=O [Example 74, N-cyclobutyl-4-(2-{2-[(2R)-2-methylpyrrolidin-1-yl]ethyl}-1-oxo-1,2,3,4-tetrahydroisoquinolin-6-yl)benzamide]",< 10
13,"CCNC(=O)c1ccc(-c2ccc3c(c2)CCN(CCN2CCC[C@H]2C)C3=O)cc1 [Example 75, N-ethyl-4-(2-{2-[(2R)-2-methylpyrrolidin-1-yl]ethyl}-1-oxo-1,2,3,4-tetrahydroisoquinolin-6-yl)benzamide]",< 10
14,"C[C@@H]1CCCN1CCN1CCc2cc(-c3ccc(C(=O)NC4CC4)cc3)ccc2C1=O [Example 76, N-cyclopropyl-4-(2-{2-[(2R)-2-methylpyrrolidin-1-yl]ethyl}-1-oxo-1,2,3,4-tetrahydroisoquinolin-6-yl)benzamide]",< 10
15,"CC(C)NC(=O)c1ccc(-c2ccc3c(c2)CCN(CCN2CCC[C@H]2C)C3=O)cc1 [Example 77, N-isopropyl-4-(2-{2-[(2R)-2-methylpyrrolidin-1-yl]ethyl}-1-oxo-1,2,3,4-tetrahydroisoquinolin-6-yl)benzamide]",< 10
16,"CNC(=O)c1ccc(-c2ccc3c(c2)CCN(CCN2CCC[C@H]2C)C3=O)cc1 [Example 78, N-methyl-4-(2-{2-[(2R)-2-methylpyrrolidin-1-yl]ethyl}-1-oxo-1,2,3,4-tetrahydroisoquinolin-6-yl)benzamide]",< 10
17,"O=C(c1ccc(-c2ccc3c(c2)CCN(CCN2CCCC2)C3=O)cc1)N1CCCCC1 [Example 79, 6-[4-(piperidin-1-ylcarbonyl)phenyl]-2-(2-pyrrolidin-1-ylethyl)-3,4-dihydroisoquinolin-1(2H)-one]",< 10

# Other lines, results leading:
row,Ki [nM],Structure (SMILES)
1,< 10,"C[C@@H]1CCCN1CCN1CCc2cc(Oc3ccc(C#N)cn3)ccc2C1=O [Example 48, 6-[(2-{2-[(2R)-2-methylpyrrolidin-1-yl]ethyl}-1-oxo-1,2,3,4-tetrahydroisoquinolin-6-yl)oxy]nicotinonitrile]"
2,< 10,"C[C@@H]1CCCN1CCN1CCc2cc(Oc3ccc(C#N)cc3)ccc2C1=O [Example 49, 4-[(2-{2-[(2R)-2-methylpyrrolidin-1-yl]ethyl}-1-oxo-1,2,3,4-tetrahydroisoquinolin-6-yl)oxy]benzonitrile]"
3,< 10,"N#Cc1ccc(Oc2ccc3c(c2)CCN(CCN2CCCC2)C3=O)cc1 [Example 50, 4-{[1-oxo-2-(2-pyrrolidin-1-ylethyl)-1,2,3,4-tetrahydroisoquinolin-6-yl]oxy}benzonitrile]"
4,< 10,"C[C@@H]1CCCN1CCN1CCc2cc(Oc3ccc(C#N)nc3)ccc2C1=O [Example 51, 5-[(2-{2-[(2R)-2-methylpyrrolidin-1-yl]ethyl}-1-oxo-1,2,3,4-tetrahydroisoquinolin-6-yl)oxy]pyridine-2-carbonitrile]"
5,< 10,"N#Cc1ccc(Oc2ccc3c(c2)CCN(CCN2CCCC2)C3=O)cn1 [Example 52, 5-{[1-oxo-2-(2-pyrrolidin-1-ylethyl)-1,2,3,4-tetrahydroisoquinolin-6-yl]oxy}pyridine-2-carbonitrile]"
6,< 10,"O=C(c1ccc(-c2ccc3c(c2)CCN(CCN2CCCC2)C3=O)cc1)N1CCCC1 [Example 54, 6-[4-(pyrrolidin-1-ylcarbonyl)phenyl]-2-(2-pyrrolidin-1-ylethyl)-3,4-dihydroisoquinolin-1(2H)-one hydrochloride]"
7,< 10,"CN(C)C(=O)c1ccc(-c2ccc3c(c2)CCN(CCN2CCCC2)C3=O)cc1 [Example 56, N,N-dimethyl-4-[1-oxo-2-(2-pyrrolidin-1-ylethyl)-1,2,3,4-tetrahydroisoquinolin-6-yl]benzamide]"
8,< 10,"O=C(NC1CC1)c1ccc(-c2ccc3c(c2)CCN(CCN2CCCC2)C3=O)cc1 [Example 57, N-cyclopropyl-4-[1-oxo-2-(2-pyrrolidin-1-ylethyl)-1,2,3,4-tetrahydroisoquinolin-6-yl]benzamide]"
9,< 10,"CCNC(=O)c1ccc(-c2ccc3c(c2)CCN(CCN2CCCC2)C3=O)cc1 [Example 58, N-ethyl-4-[1-oxo-2-(2-pyrrolidin-1-ylethyl)-1,2,3,4-tetrahydroisoquinolin-6-yl]benzamide]"
10,< 10,"CNC(=O)c1ccc(-c2ccc3c(c2)CCN(CCN2CCCC2)C3=O)cc1 [Example 59, N-methyl-4-[1-oxo-2-(2-pyrrolidin-1-ylethyl)-1,2,3,4-tetrahydroisoquinolin-6-yl]benzamide]"
11,< 10,"O=C(NCC1CC1)c1ccc(-c2ccc3c(c2)CCN(CCN2CCCC2)C3=O)cc1 [Example 60, N-(cyclopropylmethyl)-4-[1-oxo-2-(2-pyrrolidin-1-ylethyl)-1,2,3,4-tetrahydroiso-quinolin-6-yl]benzamide]"
12,< 10,"CC(C)NC(=O)c1ccc(-c2ccc3c(c2)CCN(CCN2CCCC2)C3=O)cc1 [Example 61, N-isopropyl-4-[1-oxo-2-(2-pyrrolidin-1-ylethyl)-1,2,3,4-tetrahydroisoquinolin-6-yl]benzamide]"
13,< 10,"CCN(CC)C(=O)c1ccc(-c2ccc3c(c2)CCN(CCN2CCCC2)C3=O)cc1 [Example 62, N,N-diethyl-4-[1-oxo-2-(2-pyrrolidin-1-ylethyl)-1,2,3,4-tetrahydroisoquinolin-6-yl]benzamide]"
14,< 10,"O=C(NC1CCC1)c1ccc(-c2ccc3c(c2)CCN(CCN2CCCC2)C3=O)cc1 [Example 63, N-cyclobutyl-4-[1-oxo-2-(2-pyrrolidin-1-ylethyl)-1,2,3,4-tetrahydroisoquinolin-6-yl]benzamide]"
